Each compound was assayed against T1, human GPR68 (Homo sapiens, UniProt Q15743) (assay: GPR68 Biochemical Assay (Promega GloSensor cAMP assay, GPR68 antagonism)). Settings: HEK293T cells transiently expressing hGPR68, antagonism of pH 5.5 stimulated cAMP, 15 min, read-out: hGPR68 IC50.
T1 construct: encoding full-length human GPR68 (uniprot ID: Q15743); expressed in transfected cells; host or cells: HEK293T
Assay type: cell-based
Method in brief: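 HEK293T cells transiently co-transfected with full-length human GPR68 and GloSensor plasmids, preloaded 60 min with GloSensor substrate in pH 8.0 buffer. Compounds (9-point half-log series, top 50 μM final, 0.5% DMSO) added with pH 5.5 buffer (~EC80-90 stimulation); luminescence read after 15 min at room temperature. IC50 from sigmoidal fit of % inhibition.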

T1 sequence (Q15743 whole entry): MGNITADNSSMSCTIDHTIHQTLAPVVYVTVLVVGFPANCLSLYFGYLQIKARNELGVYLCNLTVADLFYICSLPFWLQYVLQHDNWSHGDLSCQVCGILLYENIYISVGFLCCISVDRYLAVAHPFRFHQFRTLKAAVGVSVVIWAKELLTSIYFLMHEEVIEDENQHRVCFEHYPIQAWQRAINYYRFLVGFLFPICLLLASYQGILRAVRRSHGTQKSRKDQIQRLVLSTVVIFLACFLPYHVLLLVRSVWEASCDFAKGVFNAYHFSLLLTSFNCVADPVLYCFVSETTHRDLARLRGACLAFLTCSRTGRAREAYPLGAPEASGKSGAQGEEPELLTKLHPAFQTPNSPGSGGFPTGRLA

IC50 [nM] | Compound
< 50 | CSCc1nn2c(C(=O)N[C@H]3C[C@@H](OC(F)(F)F)C3)ccnc2c1C(N)=O [Compound 217, 2-(methylsulfanylmethyl)-N7-[cis-3-(trifluoromethoxy)cyclobutyl]pyrazolo[1,5-a]pyrimidine-3,7-dicarboxamide]
< 50 | COCc1nn2c(C(=O)NC3COc4ccc(Cl)cc4C3)ccnc2c1C(N)=O (centres unmarked) [Compound 114, N7-(6-chlorochroman-3-yl)-2-(methoxymethyl)pyrazolo[1,5-a]pyrimidine-3,7-dicarboxamide]
5000 to 50000 | C[C@]1(O)C[C@@H](NC(=O)c2ccnc3c(C(N)=O)cnn23)C1 [Compound 8, N7-(cis-3-hydroxy-3-methyl-cyclobutyl)pyrazolo[1,5-a]pyrimidine-3,7-dicarboxamide]
< 50 | COCc1nn2c(C(=O)NC3Cc4ccccc4C3(F)F)ccnc2c1C(N)=O (centres unmarked) [Compound 152, N7-(1,1-difluoroindan-2-yl)-2-(methoxymethyl)pyrazolo[1,5-a]pyrimidine-3,7-dicarboxamide]
< 50 | NC(=O)c1c(OCC2CC2)nn2c(C(=O)NC3Cc4ccccc4C3)ccnc12 [Compound 142, 2-(cyclopropylmethoxy)-N7-indan-2-yl-pyrazolo[1,5-a]pyrimidine-3,7-dicarboxamide]
50 to 500 | COCc1nn2c(C(=O)NCc3cccc(F)c3)ccnc2c1C(N)=O [Compound 71, N7-[(3-fluorophenyl)methyl]-2-(methoxymethyl)pyrazolo[1,5-a]pyrimidine-3,7-dicarboxamide]
< 50 | COCc1nn2c(C(=O)NC3CNc4ccccc4C3)ccnc2c1C(N)=O (centres unmarked) [Compound 93, 2-(methoxymethyl)-N7-(1,2,3,4-tetrahydroquinolin-3-yl)pyrazolo[1,5-a]pyrimidine-3,7-dicarboxamide]
< 50 | COCc1nn2c(C(=O)N[C@H]3COc4cc(F)ccc43)ccnc2c1C(N)=O [Compound 128, 2-(methoxymethyl)-N7-[(3R)-6-fluoro-2,3-dihydrobenzofuran-3-yl]pyrazolo[1,5-a]pyrimidine-3,7-dicarboxamide]
500 to 5000 | NC(=O)c1cnn2c(C(=O)NCC3CCC(F)(F)CC3)ccnc12 [Compound 101, N7-[(4,4-difluorocyclohexyl)methyl]pyrazolo[1,5-a]pyrimidine-3,7-dicarboxamide]
< 50 | COCc1nn2c(C(=O)NC3Cc4cccnc4C3)ccnc2c1C(N)=O (single isomer, unassigned) [Compound 147, N7-(6,7-dihydro-5H-cyclopenta[b]pyridin-6-yl)-2-(methoxymethyl)pyrazolo[1,5-a]pyrimidine-3,7-dicarboxamide]
< 50 | COCc1nn2c(C(=O)NC3CS(=O)(=O)C3)ccnc2c1C(N)=O [Compound 225, N7-(1,1-dioxothietan-3-yl)-2-(methoxymethyl)pyrazolo[1,5-a]pyrimidine-3,7-dicarboxamide]
5000 to 50000 | O=C(NC1Cc2ccccc2C1)c1cccc2c(-c3ncco3)cnn12 [Compound 31, N-indan-2-yl-3-oxazol-2-yl-pyrazolo[1,5-a]pyridine-7-carboxamide]
< 50 | NC(=O)c1c(C2CC2)nn2c(C(=O)NC3Cc4cccnc4C3)ccnc12 (centres unmarked) [Compound 115, 2-cyclopropyl-N7-(6,7-dihydro-5H-cyclopenta[b]pyridin-6-yl)pyrazolo[1,5-a]pyrimidine-3,7-dicarboxamide]
50 to 500 | COCc1nn2c(C(=O)N[C@H]3CC(C)(C)c4ccccc43)ccnc2c1C(N)=O [Compound 198, 2-(methoxymethyl)-N7-[(1S)-3,3-dimethylindan-1-yl]pyrazolo[1,5-a]pyrimidine-3,7-dicarboxamide]
500 to 5000 | COCc1nn2c(C(=O)Nc3ccc(CN(C)C)cc3)ccnc2c1C(N)=O [Compound 62, N7-[4-[(dimethylamino)methyl]phenyl]-2-(methoxymethyl)pyrazolo[1,5-a]pyrimidine-3,7-dicarboxamide]
50 to 500 | COCc1nn2c(C(=O)NCc3ccc4c(c3)CCO4)ccnc2c1C(N)=O [Compound 67, N7-(2,3-dihydrobenzofuran-5-ylmethyl)-2-(methoxymethyl)pyrazolo[1,5-a]pyrimidine-3,7-dicarboxamide]
< 50 | COCc1nn2c(C(=O)NCC3CCC(F)(F)CC3)ccnc2c1C(N)=O [Compound 133, N7-[(4,4-difluorocyclohexyl)methyl]-2-(methoxymethyl)pyrazolo[1,5-a]pyrimidine-3,7-dicarboxamide]
50000 to 100000 | CN(C)CCNc1nn2c(C(=O)NC3Cc4ccccc4C3)ccnc2c1C(N)=O [Compound 23, 2-[2-(dimethylamino)ethylamino]-N7-indan-2-yl-pyrazolo[1,5-a]pyrimidine-3,7-dicarboxamide]

IC50 [nM] | Compound
50 to 500 | COCc1nn2c(C(=O)N[C@H]3CC[C@@H](OC(F)(F)F)CC3)ccnc2c1C(N)=O [Compound 132, 2-(methoxymethyl)-N7-[cis-4-(trifluoromethoxy)cyclohexyl]pyrazolo[1,5-a]pyrimidine-3,7-dicarboxamide]
50 to 500 | COCc1nn2c(C(=O)NCC3CC3)ccnc2c1C(N)=O [Compound 81, N7-(cyclopropylmethyl)-2-(methoxymethyl)pyrazolo[1,5-a]pyrimidine-3,7-dicarboxamide]
50 to 500 | COCc1nn2c(C(=O)NC3COc4ccccc4C3)ccnc2c1C(N)=O (centres unmarked) [Compound 78, N7-chroman-3-yl-2-(methoxymethyl)pyrazolo[1,5-a]pyrimidine-3,7-dicarboxamide]
< 50 | NC(=O)c1c(C2CC2)nn2c(C(=O)NC3Cc4ccccc43)ccnc12 (centres unmarked) [Compound 138, N7-(7-bicyclo[4.2.0]octa-1,3,5-trienyl)-2-cyclopropyl-pyrazolo[1,5-a]pyrimidine-3,7-dicarboxamide]
< 50 | COCc1nn2c(C(=O)N[C@H]3CCOc4cc(F)ccc43)ccnc2c1C(N)=O [Compound 123, 2-(methoxymethyl)-N7-[(4S)-7-fluorochroman-4-yl]pyrazolo[1,5-a]pyrimidine-3,7-dicarboxamide]
< 50 | COCc1nn2c(C(=O)NC3CCC(F)(F)c4ccccc43)cc(C)nc2c1C(N)=O (centres unmarked) [Compound 226, N7-(4,4-difluorotetralin-1-yl)-2-(methoxymethyl)-5-methyl-pyrazolo[1,5-a]pyrimidine-3,7-dicarboxamide]
< 50 | CNc1nn2c(C(=O)NC3CC(F)(F)C3)ccnc2c1C(N)=O [Compound 34, N7-(3,3-difluorocyclobutyl)-2-(methylamino)pyrazolo[1,5-a]pyrimidine-3,7-dicarboxamide]
500 to 5000 | NC(=O)c1c(-c2ccccc2F)nn2c(C(=O)NC3Cc4ccccc4C3)cccc12 [Compound 36, 2-(2-fluorophenyl)-N7-indan-2-yl-pyrazolo[1,5-a]pyridine-3,7-dicarboxamide]
50 to 500 | Cc1nc2c(C(=O)NC3CC(F)(F)C3)ccnn2c1C(N)=O [Compound 26, N8-(3,3-difluorocyclobutyl)-2-methyl-imidazo[1,2-b]pyridazine-3,8-dicarboxamide]
< 50 | COCc1nn2c(C(=O)N[C@H]3C[C@@H](OC(F)(F)F)C3)ccnc2c1C(N)=O [Compound 61, 2-(methoxymethyl)-N7-[cis-3-(trifluoromethoxy)cyclobutyl]pyrazolo[1,5-a]pyrimidine-3,7-dicarboxamide]
50000 to 100000 | NC(=O)c1cnn2c(C(=O)NC3Cc4cccc(Oc5ccc(Cl)cc5)c4C3)ccnc12 (centres unmarked) [Compound 16, N7-[4-(4-chlorophenoxy)indan-2-yl]pyrazolo[1,5-a]pyrimidine-3,7-dicarboxamide]
< 50 | COCc1nc2c(C(=O)NC3CS(=O)(=O)c4ccccc43)ccnn2c1C(N)=O (centres unmarked) [Compound 223, N8-(1,1-dioxo-2,3-dihydrobenzothiophen-3-yl)-2-(methoxymethyl)imidazo[1,2-b]pyridazine-3,8-dicarboxamide]
< 50 | NC(=O)c1c(C2CC2)nn2c(C(=O)NCc3ccc(F)cc3)ccnc12 [Compound 140, 2-cyclopropyl-N7-[(4-fluorophenyl)methyl]pyrazolo[1,5-a]pyrimidine-3,7-dicarboxamide]
< 50 | Cc1nn2c(C(=O)NC3Cc4ccccc4C3)ccnc2c1C(N)=O [Compound 46, N7-indan-2-yl-2-methyl-pyrazolo[1,5-a]pyrimidine-3,7-dicarboxamide]
< 50 | NC(=O)c1c(C2CC2)nc2c(C(=O)NC3Cc4ccccc43)ccnn12 (centres unmarked) [Compound 210, N8-(7-bicyclo[4.2.0]octa-1,3,5-trienyl)-2-cyclopropyl-imidazo[1,2-b]pyridazine-3,8-dicarboxamide]
< 50 | COCc1nn2c(C(=O)NC3CCc4ccc(F)cc4C3)ccnc2c1C(N)=O (centres unmarked) [Compound 82, N7-(7-fluorotetralin-2-yl)-2-(methoxymethyl)pyrazolo[1,5-a]pyrimidine-3,7-dicarboxamide]
< 50 | COCc1nn2c(C(=O)NC3Cc4ccc(Cl)cc4C3)ccnc2c1C(N)=O (centres unmarked) [Compound 87, N7-(5-chloroindan-2-yl)-2-(methoxymethyl)pyrazolo[1,5-a]pyrimidine-3,7-dicarboxamide]

Same assay, conditions: hGPR68 IC50, HEK293T cells transiently expressing hGPR68, antagonism of pH 5.5 stimulated cAMP, 15 min

IC50 [nM] | Compound
< 50 | NC(=O)c1c(-c2ncco2)nn2c(C(=O)NC3Cc4ccccc4C3)ccnc12 [Compound 33, N7-indan-2-yl-2-oxazol-2-yl-pyrazolo[1,5-a]pyrimidine-3,7-dicarboxamide]
500 to 5000 | COc1cc(C(=O)NC2CC(F)(F)C2)n2nc(C)c(C(N)=O)c2n1 [Compound 41, N7-(3,3-difluorocyclobutyl)-5-methoxy-2-methyl-pyrazolo[1,5-a]pyrimidine-3,7-dicarboxamide]
5000 to 50000 | CC(C)OCc1nn2c(C(=O)NC3CC(F)(F)C3)ccnc2c1C(N)=O [Compound 28, N7-(3,3-difluorocyclobutyl)-2-(isopropoxymethyl)pyrazolo[1,5-a]pyrimidine-3,7-dicarboxamide]
